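Where inhibition never reached the appropriate level, the endpoint shown equals the highest concentration tested. Otherwise, values were interpolated linearly from a five-concentration, 48-hour dose response in 96-well plates. GI50 = concentration required for 50% inhibition of growth. Definition used: TGI = concentration required for complete inhibition of growth.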
What was measured:
Experiment in all cases: DTP human tumour cell line panel, 48 h
[1] = tested on: 786-0 renal
[2] = tested on: A498 renal
[3] = tested on: ACHN renal
[4] = tested on: BT-549 breast
[5] = tested on: CAKI-1 renal
[6] = tested on: COLO 205 colon
[7] = tested on: DU-145 prostate
[8] = tested on: EKVX NSCLC
[9] = tested on: HCT-116 colon
[10] = tested on: HCT-15 colon
[11] = tested on: HL-60(TB) leukemia
[12] = tested on: HOP-62 NSCLC
[13] = tested on: HS 578T breast
[14] = tested on: HT29 colon
[15] = tested on: IGROV1 ovarian
[16] = tested on: K-562 leukemia
[17] = tested on: KM12 colon
[18] = tested on: LOX IMVI melanoma
[19] = tested on: MCF7 breast
[20] = tested on: MDA-MB-231 breast
[21] = tested on: MDA-MB-435
[22] = tested on: MOLT-4 leukemia
[23] = tested on: NCI-H226 lung
[24] = tested on: NCI-H23 lung
[25] = tested on: NCI-H460 lung
[26] = tested on: NCI-H522 lung
[27] = tested on: NCI/ADR-RES ovarian
[28] = tested on: OVCAR-3 ovarian
[29] = tested on: OVCAR-5 ovarian
[30] = tested on: OVCAR-8 ovarian
[31] = tested on: PC-3 prostate
[32] = tested on: RPMI-8226 leukemia
[33] = tested on: RXF 393 renal
[34] = tested on: SF-268 CNS
[35] = tested on: SF-295 CNS
[36] = tested on: SF-539 CNS
[37] = tested on: SK-MEL-2 melanoma
[38] = tested on: SK-MEL-28 melanoma
[39] = tested on: SK-MEL-5 melanoma
[40] = tested on: SN12C renal
[41] = tested on: SNB-19 CNS
[42] = tested on: SNB-75 CNS
[43] = tested on: SR leukemia
[44] = tested on: SW-620 colon
[45] = tested on: TK-10 renal
[46] = tested on: U251 CNS
[47] = tested on: UACC-257 melanoma
[48] = tested on: UACC-62 melanoma
[49] = tested on: UO-31 renal
[50] = tested on: A549 NSCLC
[51] = tested on: CCRF-CEM leukemia
[52] = tested on: HCC-2998 colon
[53] = tested on: M14 melanoma
[54] = tested on: MALME-3M melanoma
[55] = tested on: OVCAR-4 ovarian
[56] = tested on: SK-OV-3 ovarian
[57] = tested on: T-47D breast

`OCNCCNc1nc2ccccc2c2[nH]c3ccccc3c12` gave a GI50 [1] of 0.34 µM, a TGI [1] of 2.35 µM and a GI50 [2] of 1.55 µM. The TGI [2] was 4.46 µM, the GI50 [3] was 0.38 µM and the TGI [3] was 2.24 µM. For the same compound, the GI50 [4] was 1.15 µM, the TGI [4] was 3.48 µM and the GI50 [5] was 2.01 µM. The TGI [5] was 7.38 µM, the GI50 [6] was 1.76 µM and the TGI [6] was > 50 µM. It also gave a GI50 [7] of 0.735 µM, a TGI [7] of 2.42 µM and a GI50 [8] of 1.18 µM. It also gave a TGI [8] of 3.25 µM, a GI50 [9] of 0.186 µM and a TGI [9] of 1.14 µM. For the same compound, the GI50 [10] was 1.42 µM, the TGI [10] was 6.71 µM and the GI50 [11] was 1.31 µM. For the same compound, the TGI [11] was 3.93 µM, the GI50 [12] was 0.371 µM and the TGI [12] was 1.92 µM. It also gave a GI50 [13] of 1.46 µM, a TGI [13] of 3.87 µM and a GI50 [14] of 0.556 µM. The TGI [14] was > 50 µM, the GI50 [15] was 1.14 µM and the TGI [15] was 7.31 µM. It also gave a GI50 [16] of 1.55 µM, a TGI [16] of 42.8 µM and a GI50 [17] of 1.54 µM. The TGI [17] was 7.37 µM, the GI50 [18] was 0.441 µM and the TGI [18] was 1.39 µM. It also gave a GI50 [19] of 1.24 µM, a TGI [19] of 4.5 µM and a GI50 [20] of 1.24 µM. The TGI [20] was 3.77 µM, the GI50 [21] was 1.46 µM and the TGI [21] was 5.11 µM. The GI50 [22] was 0.809 µM, the TGI [22] was > 50 µM and the GI50 [23] was 1.47 µM. It also gave a TGI [23] of 5.88 µM, a GI50 [24] of 0.772 µM and a TGI [24] of 2.69 µM. The GI50 [25] was 1.46 µM, the TGI [25] was 5.8 µM and the GI50 [26] was 1.55 µM. For the same compound, the TGI [26] was > 50 µM, the GI50 [27] was 7.17 µM and the TGI [27] was 22.6 µM. It also gave a GI50 [28] of 1.31 µM, a TGI [28] of 3.67 µM and a GI50 [29] of 0.582 µM. The TGI [29] was 6.75 µM, the GI50 [30] was 0.809 µM and the TGI [30] was 8.41 µM. It also gave a GI50 [31] of 0.879 µM, a TGI [31] of 2.11 µM and a GI50 [32] of 0.84 µM. The TGI [32] was 2.01 µM, the GI50 [33] was 1.11 µM and the TGI [33] was 5.85 µM. For the same compound, the GI50 [34] was 1.36 µM, the TGI [34] was 6.44 µM and the GI50 [35] was 1.41 µM. For the same compound, the TGI [35] was 5.97 µM, the GI50 [36] was 0.189 µM and the TGI [36] was 0.863 µM. For the same compound, the GI50 [37] was 2.25 µM, the TGI [37] was 24 µM and the GI50 [38] was 1.01 µM. For the same compound, the TGI [38] was 6.84 µM, the GI50 [39] was 1.28 µM and the TGI [39] was 4.09 µM. It also gave a GI50 [40] of 1.26 µM, a TGI [40] of 3.66 µM and a GI50 [41] of 2.1 µM. For the same compound, the TGI [41] was 11.7 µM, the GI50 [42] was 2.28 µM and the TGI [42] was 11.6 µM. For the same compound, the GI50 [43] was 0.902 µM, the TGI [43] was > 50 µM and the GI50 [44] was 0.366 µM. The TGI [44] was 2.22 µM, the GI50 [45] was 1.76 µM and the TGI [45] was 9.89 µM. The GI50 [46] was 0.506 µM, the TGI [46] was 1.9 µM and the GI50 [47] was 1.64 µM. It also gave a TGI [47] of 5.71 µM, a GI50 [48] of 2 µM and a TGI [48] of 7.5 µM. The GI50 [49] was 2.98 µM and the TGI [49] was > 50 µM.
In the case of `C=CC1CN2CCC1CC2C(O)c1ccnc2ccccc12` (stereo unspecified), the TGI [1] was > 100 µM, the TGI [50] was > 100 µM and the TGI [3] was > 100 µM. The TGI [4] was > 100 µM, the TGI [5] was > 100 µM and the GI50 [51] was > 100 µM. The TGI [51] was > 100 µM, the TGI [6] was > 100 µM and the TGI [7] was > 100 µM. For the same compound, the GI50 [8] was > 100 µM, the TGI [8] was > 100 µM and the GI50 [52] was > 100 µM. The TGI [52] was > 100 µM, the TGI [9] was > 100 µM and the TGI [10] was > 100 µM. For the same compound, the TGI [11] was > 100 µM, the GI50 [12] was > 100 µM and the TGI [12] was > 100 µM. For the same compound, the GI50 [14] was > 100 µM, the TGI [14] was > 100 µM and the GI50 [15] was > 100 µM. For the same compound, the TGI [15] was > 100 µM, the GI50 [16] was > 100 µM and the TGI [16] was > 100 µM. For the same compound, the TGI [17] was > 100 µM, the GI50 [18] was > 100 µM and the TGI [18] was > 100 µM. The GI50 [53] was > 100 µM, the TGI [53] was > 100 µM and the GI50 [54] was 0.0846 µM. The TGI [54] was > 100 µM, the GI50 [19] was 5.05 µM and the TGI [19] was > 100 µM. The TGI [20] was > 100 µM, the TGI [21] was > 100 µM and the TGI [22] was > 100 µM. For the same compound, the TGI [23] was > 100 µM, the TGI [24] was > 100 µM and the TGI [25] was > 100 µM. The TGI [27] was > 100 µM, the TGI [28] was > 100 µM and the GI50 [55] was > 100 µM. For the same compound, the TGI [55] was > 100 µM, the TGI [29] was > 100 µM and the TGI [30] was > 100 µM. The TGI [31] was > 100 µM, the TGI [33] was > 100 µM and the TGI [34] was > 100 µM. For the same compound, the TGI [35] was > 100 µM, the TGI [36] was > 100 µM and the TGI [37] was > 100 µM. The TGI [38] was > 100 µM, the TGI [39] was > 100 µM and the TGI [56] was > 100 µM. For the same compound, the TGI [40] was > 100 µM, the TGI [41] was > 100 µM and the GI50 [42] was > 100 µM. The TGI [42] was > 100 µM, the GI50 [43] was > 100 µM and the TGI [43] was > 100 µM. The TGI [44] was > 100 µM, the TGI [57] was > 100 µM and the TGI [45] was > 100 µM. The TGI [46] was > 100 µM, the TGI [47] was > 100 µM and the TGI [48] was > 100 µM. The GI50 [49] was 36.8 µM and the TGI [49] was > 100 µM.

— PubChem BioAssay (NCI)
